As usually defined, the Emax is the greatest response seen or fitted, relative to the assay's reference. As usually defined, the pEC50 is the negative decadic logarithm of the EC50, by convention in mol/L.

pEC50: −log10 of the molar value. Calls of active or inactive are those of the source. No cut-off for these calls is given here.

The species entered for series [1] is Homo sapiens. Nature of the series: Selectivity ratio of Ki for human kappa opioid receptor to Ki for human mu opioid receptor.
For series [2], the species on record is Homo sapiens. Nature of the series: Selectivity ratio of Ki for human delta opioid receptor to Ki for human mu opioid receptor.
Series [3] is filed under the species Homo sapiens. Nature of the series: Selectivity ratio of Ki for delta opioid receptor (unknown origin) to Ki for kappa opioid receptor (unknown origin).
The species named for series [4] is Homo sapiens. Briefly: Selectivity ratio of Ki for mu opioid receptor (unknown origin) to Ki for kappa opioid receptor (unknown origin).
The target in series [5] is T1, Mu-type opioid receptor (Homo sapiens, UniProt P35372). Nature of the series: Agonist activity at mu opioid receptor (unknown origin) expressed in CHO cell membranes assessed as stimulation of [35S]-GTPgammaS binding after 1.5 hrs relative to DAMGO. Format: functional.
The species entered for series [6] is Homo sapiens. Briefly: Selectivity ratio of Ki for delta opioid receptor (unknown origin) to Ki for mu opioid receptor (unknown origin).
The species named for series [7] is Homo sapiens. Briefly: Selectivity ratio of Ki for kappa opioid receptor (unknown origin) to Ki for mu opioid receptor (unknown origin).
Series [8] has as its system Mus musculus. Nature of the series: Induction of withdrawal symptoms in chronic morphine-exposed Swiss-Webster mouse assessed as decrease in wet dog shakes at 1 mg/kg, sc measured over 20 mins. Format: organism-based. Set-up: dose 1 mg/kg, route subcutaneous. Particulars: in vivo.
Series [9] has as its system Mus musculus. Briefly: Induction of withdrawal symptoms in chronic morphine-exposed Swiss-Webster mouse assessed as decrease in escape jumps at 1 mg/kg, sc measured over 20 mins. Set-up: dose 1 mg/kg, route subcutaneous. Particulars: in vivo. It is filed as organism-based.
Series [10] deals with Mus musculus. Nature of the series: Antinociceptive activity in Swiss-Webster mouse up to 30 mg/kg, sc by warm-water tail-flick assay. It is filed as functional, organism-based. Set-up: dose 30 mg/kg.
In series [11] the target is T2, Kappa-type opioid receptor (Homo sapiens, UniProt P41145). Nature of the series: Agonist activity at kappa opioid receptor (unknown origin) expressed in CHO cell membranes assessed as stimulation of [35S]-GTPgammaS binding after 1.5 hrs relative to U50488. It is filed as functional.
Series [12] concerns the target T1, Mu-type opioid receptor. Briefly: Agonist activity at mu opioid receptor (unknown origin) expressed in CHO cell membranes assessed as stimulation of [35S]-GTPgammaS binding at 10 uM after 1.5 hrs relative to DAMGO. Format: functional. Background: GTPγS is a poorly hydrolysed GTP analogue; its binding reports G protein activation.
For series [13], the system named is Mus musculus. Briefly: Induction of withdrawal symptoms in chronic morphine-exposed Swiss-Webster mouse assessed as decrease in wet dog shakes at 10 to 30 mg/kg, sc measured over 20 mins. Format: organism-based. Set-up: dose 10-30 mg/kg, route subcutaneous. As to conditions: in vivo.
The subject of series [14] is Mus musculus. Nature of the series: Induction of withdrawal symptoms in chronic morphine-exposed Swiss-Webster mouse assessed as decrease in escape jumps at 10 to 30 mg/kg, sc measured over 20 mins. Set-up: dose 10-30 mg/kg, route subcutaneous. As to conditions: in vivo. Format: organism-based.
The target in series [15] is Delta-type opioid receptor (Homo sapiens) (UniProt P41143). Nature of the series: Agonist activity at delta opioid receptor (unknown origin) expressed in CHO cell membranes assessed as stimulation of [35S]-GTPgammaS binding after 1.5 hrs relative to SNC80. Format: functional.
In series [16] the test system is Mus musculus. Nature of the series: Reduction of morphine-induced antinociceptive activity in sc dosed Swiss-Webster mouse assessed as dose required to antagonize morphine effect by warm-water tail-flick assay. It is filed as functional. For orientation: Hot-plate and tail-flick tests time the reaction to a heat stimulus.
Series [17] addresses T2, Kappa-type opioid receptor. Briefly: Partial agonist activity at human kappa opioid receptor expressed in CHO cells assessed as stimulation of [35S]-GTPgammaS binding after 3 hrs by liquid scintillation counting analysis. Format: functional, cell-based.
Series [18] has as its system Mus musculus. Nature of the series: Induction of withdrawal symptoms in chronic morphine-exposed Swiss-Webster mouse assessed as decrease in escape jumps at 30 mg/kg, sc measured over 20 mins. It is filed as organism-based. As to conditions: in vivo. Set-up: dose 30 mg/kg, route subcutaneous.
The test system of series [19] is Mus musculus. Briefly: Induction of withdrawal symptoms in chronic morphine-exposed Swiss-Webster mouse assessed as decrease in escape jumps at 3 to 10 mg/kg, sc measured over 20 mins. Format: organism-based. Set-up: dose 3-10 mg/kg, route subcutaneous. As to conditions: in vivo.
Series [20] deals with Mus musculus. Nature of the series: Induction of withdrawal symptoms in chronic morphine-exposed Swiss-Webster mouse assessed as decrease in wet dog shakes at 3 mg/kg, sc measured over 20 mins. As to conditions: in vivo. Set-up: dose 3 mg/kg, route subcutaneous. It is filed as organism-based.
For series [21], the system named is Mus musculus. Nature of the series: Induction of withdrawal symptoms in chronic morphine-exposed Swiss-Webster mouse assessed as decrease in wet dog shakes at 3 to 30 mg/kg, sc measured over 20 mins. Format: organism-based. Set-up: dose 3-30 mg/kg, route subcutaneous. Particulars: in vivo.

T2 sequence (P41145 whole entry): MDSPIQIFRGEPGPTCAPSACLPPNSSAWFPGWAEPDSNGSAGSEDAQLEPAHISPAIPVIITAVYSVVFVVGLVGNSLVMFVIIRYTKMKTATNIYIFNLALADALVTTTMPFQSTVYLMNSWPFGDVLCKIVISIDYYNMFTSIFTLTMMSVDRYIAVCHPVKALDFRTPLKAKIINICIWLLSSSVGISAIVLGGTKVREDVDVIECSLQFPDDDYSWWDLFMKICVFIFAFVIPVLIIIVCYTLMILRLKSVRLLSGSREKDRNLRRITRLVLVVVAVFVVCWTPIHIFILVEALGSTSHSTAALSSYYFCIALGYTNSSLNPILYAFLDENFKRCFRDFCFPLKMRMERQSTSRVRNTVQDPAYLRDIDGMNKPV
Chain of Delta-type opioid receptor (Homo sapiens) (P41143 whole entry): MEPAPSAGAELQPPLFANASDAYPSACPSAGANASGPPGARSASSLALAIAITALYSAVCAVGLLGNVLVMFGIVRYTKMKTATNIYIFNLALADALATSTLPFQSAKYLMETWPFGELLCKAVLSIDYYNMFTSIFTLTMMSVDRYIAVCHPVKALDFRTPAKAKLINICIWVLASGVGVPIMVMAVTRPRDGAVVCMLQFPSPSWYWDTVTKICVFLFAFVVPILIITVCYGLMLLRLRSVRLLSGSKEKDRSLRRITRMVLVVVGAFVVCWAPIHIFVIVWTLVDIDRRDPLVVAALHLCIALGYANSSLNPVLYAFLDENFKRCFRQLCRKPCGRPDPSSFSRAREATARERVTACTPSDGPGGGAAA
T1 sequence (P35372 whole entry): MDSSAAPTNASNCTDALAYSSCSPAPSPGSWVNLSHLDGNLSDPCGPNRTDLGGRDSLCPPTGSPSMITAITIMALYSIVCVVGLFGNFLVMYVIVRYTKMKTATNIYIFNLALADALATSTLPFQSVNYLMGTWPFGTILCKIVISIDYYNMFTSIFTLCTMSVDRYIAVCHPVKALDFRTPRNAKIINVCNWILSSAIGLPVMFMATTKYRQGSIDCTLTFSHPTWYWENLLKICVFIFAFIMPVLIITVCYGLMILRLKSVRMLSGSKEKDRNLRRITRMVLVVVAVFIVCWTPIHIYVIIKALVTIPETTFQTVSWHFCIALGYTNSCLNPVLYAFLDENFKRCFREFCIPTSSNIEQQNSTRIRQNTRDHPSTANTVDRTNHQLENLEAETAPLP

As for `Cc1ccc(/C=C/C(=O)O[C@@]23CCC(=O)[C@@H]4Oc5c(O)ccc6c5[C@@]42CCN(CC2CC2)[C@@H]3C6)cc1`, the Ratio Ki came to 15 in the series listed under Homo sapiens [1] and 31 in the series listed under Homo sapiens [2].
For the molecule `O=C(N[C@@]12CCC(=O)[C@@H]3Oc4c(O)ccc5c4[C@@]31CCN(CC1CC1)[C@@H]2C5)c1ccccc1`, the Ratio Ki in the series listed under Homo sapiens [3] was determined as 477; in the series filed under Homo sapiens [4] it was 36; in the series filed under Homo sapiens [6] it was 13. Besides, the Emax on Mu-type opioid receptor [5] was found to be 5.8%.
For `Cc1ccc(/C=C/C(=O)N[C@@]23CCC(=O)[C@@H]4Oc5c(O)ccc6c5[C@@]42CCN(CC2CC2)[C@@H]3C6)cc1`, the Ratio Ki in the series listed under Homo sapiens [1] stood at 3; in the series filed under Homo sapiens [2] it was 1.
Turning to `O=C(O[C@@]12CCC(=O)[C@@H]3Oc4c(O)ccc5c4[C@@]31CCN(CC1CC1)[C@@H]2C5)c1ccc2ccccc2c1`, the Ratio Ki was determined as 19 in the series filed under Homo sapiens [3], 0.21 in the series listed under Homo sapiens [7] and 4 in the series filed under Homo sapiens [6].
As for `O=C(N[C@@]12CCC(=O)[C@@H]3Oc4c(O)ccc5c4[C@@]31CCN(CC1CC1)[C@@H]2C5)c1cnc2ccccc2c1`, the Ratio Ki worked out at 11 in the series filed under Homo sapiens [3], 8.7 in the series filed under Homo sapiens [4] and 1.3 in the series filed under Homo sapiens [6]. Also, the Emax on Mu-type opioid receptor [5] was 15.8%.
As to `C=CCN1CC[C@]23c4c5ccc(O)c4O[C@H]2C(=O)CC[C@@]3(O)[C@H]1C5` [NALOXONE], the Activity entry in the series with Mus musculus [8] and in the series on Mus musculus [9] was “Toxic” each time.
Turning to `O=C(N[C@@]12CCC(=O)[C@@H]3Oc4c(O)ccc5c4[C@@]31CCN(CC1CC1)[C@@H]2C5)c1ccncc1`, the figures for the Ratio Ki in the series filed under Homo sapiens [3], in the series listed under Homo sapiens [4] and in the series filed under Homo sapiens [6] were 33, 2.5 and 13, respectively. In addition, on Mu-type opioid receptor [5], the Emax came to 7.7%.
Regarding `Cl.O=C(N[C@@]12CCC(=O)[C@@H]3Oc4c(O)ccc5c4[C@@]31CCN(CC1CC1)[C@@H]2C5)c1cccnc1`, the figures for the Ratio Ki in the series listed under Homo sapiens [3], in the series listed under Homo sapiens [4] and in the series listed under Homo sapiens [6] were 249, 4.7 and 53, respectively. The outcome in the series on Mus musculus [10] was inactive. Moreover, the Emax in series [11] was 35.3%; on Mu-type opioid receptor [12], 5.1%; in series [15], 10.3%. Further, the Activity entry was “Toxic” in the series with Mus musculus [13], “Toxic” with Mus musculus [14] and 0.55 mg/kg in the series on Mus musculus [16].
In the case of `O=C(O[C@@]12CCC(=O)[C@@H]3Oc4c(O)ccc5c4[C@@]31CCN(CC1CC1)[C@@H]2C5)c1ccc2ccccc2n1`, the Ratio Ki was 0.34 in the series listed under Homo sapiens [3], 47 in the series listed under Homo sapiens [7] and 16 in the series listed under Homo sapiens [6].
Turning to `O=C1CC[C@@]2(O)[C@H]3Cc4ccc(O)c5c4[C@@]2(CCN3CC2CC2)[C@H]1O5` [NALTREXONE], the Activity result in the series with Mus musculus [8] and in the series on Mus musculus [9] was “Toxic” throughout.
As to `O=C(Cc1ccccn1)N[C@@]12CCC(=O)[C@@H]3Oc4c(O)ccc5c4[C@@]31CCN(CC1CC1)[C@@H]2C5`, the Ratio Ki came to 21 in the series listed under Homo sapiens [3], 1.5 in the series filed under Homo sapiens [4] and 14 in the series filed under Homo sapiens [6]. For the same molecule, the Emax on Mu-type opioid receptor [5] came out at 78%.
`O=C(CCc1ccccn1)N[C@@]12CCC(=O)[C@@H]3Oc4c(O)ccc5c4[C@@]31CCN(CC1CC1)[C@@H]2C5`: the results for the Ratio Ki in the series filed under Homo sapiens [3], in the series filed under Homo sapiens [4] and in the series listed under Homo sapiens [6] were 54, 1.9 and 29, respectively. The Emax at Mu-type opioid receptor [5] was 12.7%.
As for `COc1cccc2c1[C@]13CCN(CC4CC4)[C@H](C2)[C@]1(OC)CCC(=O)C3` [CYPRODIME], the Ratio Ki came to 10 in the series filed under Homo sapiens [7] and 39 in the series listed under Homo sapiens [6].
For the molecule `O=C(O[C@@]12CCC(=O)[C@@H]3Oc4c(O)ccc5c4[C@@]31CCN(CC1CC1)[C@@H]2C5)c1cccnc1`, the Ratio Ki in the series filed under Homo sapiens [3] came out at 3.6; in the series filed under Homo sapiens [7], 30; in the series listed under Homo sapiens [6], 107.
`Oc1cccc2c1O[C@H]1CCC[C@H]3CN(CC4CC4)CC[C@@]231`: the pEC50 in [17] is 8.57.
With `O=C(CNC(=O)c1ccccn1)N[C@@]12CCC(=O)[C@@H]3Oc4c(O)ccc5c4[C@@]31CCN(CC1CC1)[C@@H]2C5`, the Ratio Ki in the series listed under Homo sapiens [3] was 2.6; in the series listed under Homo sapiens [4], 2.1; in the series listed under Homo sapiens [6] it was 1.2. Also, on Mu-type opioid receptor [5], the Emax was determined as 11.8%.
On to `Cl.O=C(N[C@@]12CCC(=O)[C@@H]3Oc4c(O)ccc5c4[C@@]31CCN(CC1CC1)[C@@H]2C5)c1ccccn1`, for which the Activity result was “Toxic” with Mus musculus [18]; “Non-toxic” with Mus musculus [19]; “Non-toxic” in the series on Mus musculus [20]; “Toxic” in the series on Mus musculus [13]; 0.25 mg/kg in the series with Mus musculus [16]. Also, the Ratio Ki in the series filed under Homo sapiens [3] was 263; in the series listed under Homo sapiens [4] it was 4.2; in the series filed under Homo sapiens [6] it was 63. Further, the outcome in the series with Mus musculus [10] was inactive. For the same molecule, the Emax came to 24.9% in series [11], 0.9% on Mu-type opioid receptor [12] and 8.6% in series [15].
Turning to `O=C(O[C@@]12CCC(=O)[C@@H]3Oc4c(O)ccc5c4[C@@]31CCN(CC1CC1)[C@@H]2C5)c1ccccn1`, the Ratio Ki in the series listed under Homo sapiens [3] stood at 4.6; in the series listed under Homo sapiens [7], 182; in the series listed under Homo sapiens [6], 838.
`Cl.O=C(N[C@@]12CCC(=O)[C@@H]3Oc4c(O)ccc5c4[C@@]31CCN(CC1CC1)[C@@H]2C5)c1cc2ccccc2cn1`: the Activity entry with Mus musculus [18] was “Toxic”; in the series on Mus musculus [19] it was “Non-toxic”; in the series with Mus musculus [21], “Toxic”; in the series on Mus musculus [16] it was 0.87 mg/kg. Moreover, the results for the Ratio Ki in the series filed under Homo sapiens [3], in the series filed under Homo sapiens [4] and in the series listed under Homo sapiens [6] were 93, 13 and 7.2, respectively. For the same molecule, in the series on Mus musculus [10], the result was inactive. Moreover, the Emax in [11] is 16.8%; at Mu-type opioid receptor [12], 2.8%; in series [15] it was 23.8%.
Regarding `O=C(N[C@@]12CCC(=O)[C@@H]3Oc4c(O)ccc5c4[C@@]31CCN(CC1CC1)[C@@H]2C5)c1ccc2ccccc2c1`, the Ratio Ki in the series listed under Homo sapiens [3] turned out to be 32; in the series filed under Homo sapiens [4], 19; in the series listed under Homo sapiens [6], 1.7. The Emax on Mu-type opioid receptor [5] was 16.5%.
As for `O=C(O[C@@]12CCC(=O)[C@@H]3Oc4c(O)ccc5c4[C@@]31CCN(CC1CC1)[C@@H]2C5)c1ccncc1`, the figures for the Ratio Ki in the series filed under Homo sapiens [3], in the series listed under Homo sapiens [7] and in the series filed under Homo sapiens [6] were 8.2, 8.8 and 73, respectively.
Turning to `O=C(O[C@@]12CCC(=O)[C@@H]3Oc4c(O)ccc5c4[C@@]31CCN(CC1CC1)[C@@H]2C5)c1cnc2ccccc2c1`, the Ratio Ki in the series filed under Homo sapiens [3] came out at 5.5; in the series listed under Homo sapiens [7], 55; in the series listed under Homo sapiens [6], 304. Further, the Emax at Mu-type opioid receptor [5] came to 22%.
In the case of `O=C(O[C@@]12CCC(=O)[C@@H]3Oc4c(O)ccc5c4[C@@]31CCN(CC1CC1)[C@@H]2C5)c1ccccc1`, the Ratio Ki in the series listed under Homo sapiens [3] was over 17; in the series filed under Homo sapiens [7] it was 4.7.
Regarding `O=C(N[C@@]12CCC(=O)[C@@H]3Oc4c(O)ccc5c4[C@@]31CCN(CC1CC1)[C@@H]2C5)c1ccc2ccccc2n1`, the Ratio Ki in the series listed under Homo sapiens [3] amounted to 58; in the series filed under Homo sapiens [4], 35; in the series listed under Homo sapiens [6], 1.7. Besides, the Emax on Mu-type opioid receptor [5] is 34.4%.
